Data: PMC10611374, “Characterization of the Hemolytic Activity of Mastoparan Family Peptides from Wasp Venoms” (Toxins, 2023)
≈ marks a conversion by molar mass, not a printed value. Read-outs that look alike come from different tables or passages of the source. Ends that are not written are not given here.

Legend:
S. aureus = conditions: reported antibacterial activity; reference per peptide in Table 3; cited from earlier work
E. coli = conditions: reported antibacterial activity; reference per peptide in Table 3; cited from earlier work
[1] = test system: rat red blood cells (RRBCs); assay: Hemolytic assay on rat red blood cells; format: cell-based, SD rats; conditions: for RRBC Hemolysis (hemolysis rate at 320 μg/mL) / EC50: rat red blood cells 5% (v/v) in PBS, 37 °C 1 h, OD 540 nm; for RRBC Hemolysis (hemolysis rate at 320 μg/mL): peptide 320 μg/mL (highest dose), PBS = 0%, mean of three independent experiments; for EC50: four-parameter logistic fit of mean of three independent experiments, '-' = hemolytic activity too low to calculate the EC50
Description: (§1) Fresh human red blood cells were obtained from healthy donors and collected in a sterile blood collecting vessel covered with sodium citrate (1:9) as the anticoagulating agent. Rat red blood cells were collected from the abdominal aorta in sterile blood-collecting vessels coated with sodium citrate (1:4) after the SD rats were anaesthetized with isoflurane. Then, the cells were washed three times with phosphate-buffered saline via centrifugation (1000× g, 4 °C, 5 min) and prepared in a sterile 96-well polypropylene plate to achieve a final concentration of 5% (v/v). Twofold dilutions of the peptides were prepared in PBS to 100 μL and mixed with an equal volume of HRBCs/RRBCs suspension to final peptide concentrations ranging from 10 to 320 μg/mL. After coincubation at 37 °C for 1 h, the plate was centrifuged (2000× g, 4 °C, 20 min), and 100 μL of supernatant was taken for optical density measurements at 540 nm using a microtiter plate reader (SpectraMax 190). The HRBCs/RRBCs were assayed with PBS (blank) or 1% Triton X-100 (positive control) to represent 0% and 100% hemolysis, respectively. The percent hemolysis was calculated according to the following equation: Hemolysis Rate (%) = 100% × (Amastoparans − Ablank)/(ATriton X-100 − Ablank). Three independent experiments were performed, and the mean hemolysis rate at each dose was used to calculate the EC50 in Sigmaplot software.
(§2) Statistical analysis was performed with GraphPad Prism software (version 5.0, San Diego, CA, USA). A two-tailed Student’s t-test was used to calculate the statistical probability in this study. Differences in the data were considered to be statistically significant when the p value was equal to or less than 0.05. The curve of hemolysis induced by wasp mastoparans was generated in SigmaPlot 12.5 software, and the EC50 was calculated according to the equation (Four Parameter Logistic Curve): y = min + (max − min)/(1 + (x/EC50)^−Hillslope). The heat map of hemolytic activity of mastoparan peptide was analysed in R software which is based on the value of log2(EC50).

[2] = test system: human red blood cells (HRBCs); assay: Hemolytic assay on human red blood cells; format: cell-based; conditions: for HRBC Hemolysis (hemolysis rate at 320 μg/mL) / EC50: human red blood cells 5% (v/v) in PBS, 37 °C 1 h, OD 540 nm; for HRBC Hemolysis (hemolysis rate at 320 μg/mL): peptide 320 μg/mL (highest dose), PBS = 0%, mean of three independent experiments; for EC50: four-parameter logistic fit of mean of three independent experiments, '-' = hemolytic activity too low to calculate the EC50
Description: as §1, §2

B. subtilis = conditions: reported antibacterial activity; reference per peptide in Table 3; cited from earlier work
[3] = test system: Escherichia coli and Staphylococcus aureus/Bacillus subtilis; design: method as in Table 3 refs 12, 13, 18-30; conditions: both on Escherichia coli and Staphylococcus aureus/Bacillus subtilis; reported values, ref Table 3 refs 12, 13, 18-30; cited from earlier work
[4] = peptide 10-320 μg/mL twofold dilutions, 1% Triton X-100 = 100%, read-out: RRBC EC50 (hemolytic activity)
[5] = peptide 10-320 μg/mL twofold dilutions, 1% Triton X-100 = 100%, read-out: HRBC EC50 (hemolytic activity)
[6] = Table 2 series, read-out: RRBC EC50 (hemolytic activity), Protopolybia-MPIII and mutants
[7] = Table 2 series, read-out: HRBC EC50 (hemolytic activity), Protopolybia-MPIII and mutants

Molecule	MIC S. aureus (S. aureus)	MIC E. coli (E. coli)	RRBC Hemolysis (hemolysis rate at 320 μg/mL) ([1]; 1% Triton X-100 = 100%)	EC50 [1, 4]	HRBC Hemolysis (hemolysis rate at 320 μg/mL) ([2]; 1% Triton X-100 = 100%)	EC50 [2, 5]	MIC B. subtilis (B. subtilis)	hemolytic activity on RRBCs, result in words [1]	hemolytic activity on HRBCs, result in words ([2]; mutants relative to Protopolybia-MPIII)	MIC (antibacterial activity, summary) [3]	EC50 [1, 6]	EC50 [2, 7]
CC[C@H](C)[C@H](NC(=O)[C@H](CO)NC(=O)[C@H](CCCCN)NC(=O)[C@H](CC(C)C)NC(=O)[C@H](CCCCN)NC(=O)[C@@H](N)CC(C)C)C(=O)N[C@H](C(=O)N[C@@H](CO)C(=O)N[C@@H](Cc1c[nH]c2ccccc12)C(=O)N[C@@H](C)C(=O)N[C@@H](CCCCN)C(=O)N[C@@H](CCCCN)C(=O)N[C@H](C(=O)N[C@@H](CC(C)C)C(N)=O)C(C)C)C(C)C [Mastoparan-B]	60 µM (≈ 96.7 µg/mL)	10 µM (≈ 16.1 µg/mL)	19%	> 400 µM	22%	> 400 µM						
INLKAIAAFAKKLL-NH2 [Mastoparan-T(D)]	15.9 µM	5.3 µM	19%	> 400 µM	15%	> 400 µM						
INLKAIAALAKKLL-NH2 [Mastoparan-M]	3.38 µM	13.5 µM	28%	> 400 µM	18%	> 400 µM						
INLKGLIKKVASLLT-OH [EpVP1]	100 µM	25 µM	0%	> 400 µM	9%	> 400 µM	5 µM	almost no hemolytic activity	almost no hemolytic activity			
INMKASAAVAKKLL-NH2 [MP-VB1]	2.5 µM	10.3 µM	7%	> 400 µM	0%	> 400 µM						
INWKGIAAMKKLL-NH2 [Mastoparan-like peptide 12b]	2.5 µM	10 µM	0%	> 400 µM	0%	≥ 400 µM				≤ 10 µM		
INWKKIAEIGKQVLSAL-NH2 [Dominulin B]		1 µM	0%	> 400 µM	8%	≥ 400 µM	4 µM			≤ 10 µM		
INWKKIAEVGGKILSSL-NH2 [Dominulin A]		1 µM	0%	> 400 µM	4%	≥ 400 µM	4 µM			≤ 10 µM		
INWLKLGKKILGAI-NH2 [Pm-R1]			92%	105 ± 2.2 µM	100%	72 ± 8.5 µM						
INWLKLGKKILGAL-NH2 [PDD-B]			100%	55.6 ± 4.1 µM	100%	48.5 ± 3.4 µM						
INWLKLGKKMMSAL-NH2 [MP]			10%		87%	124 ± 15.3 µM						
INWLKLGKKVIAAL-NH2 [Protopolybia-MPIII-6]											108 ± 3.2 µM	110 ± 2.5 µM
INWLKLGKKVIAIL-NH2 [Protopolybia-MPIII-12]											55.2 ± 2.2 µM	43.9 ± 3.6 µM
